{"source": "paper PMC6831664", "about": "“Synthesis of new isoquinoline-base-oxadiazole derivatives as potent inhibitors of thymidine phosphorylase and molecular docking study” (Scientific Reports, 2019)", "target": "thymidine phosphorylase (Escherichia coli, UniProt P07650)", "sequence (P07650 whole entry)": "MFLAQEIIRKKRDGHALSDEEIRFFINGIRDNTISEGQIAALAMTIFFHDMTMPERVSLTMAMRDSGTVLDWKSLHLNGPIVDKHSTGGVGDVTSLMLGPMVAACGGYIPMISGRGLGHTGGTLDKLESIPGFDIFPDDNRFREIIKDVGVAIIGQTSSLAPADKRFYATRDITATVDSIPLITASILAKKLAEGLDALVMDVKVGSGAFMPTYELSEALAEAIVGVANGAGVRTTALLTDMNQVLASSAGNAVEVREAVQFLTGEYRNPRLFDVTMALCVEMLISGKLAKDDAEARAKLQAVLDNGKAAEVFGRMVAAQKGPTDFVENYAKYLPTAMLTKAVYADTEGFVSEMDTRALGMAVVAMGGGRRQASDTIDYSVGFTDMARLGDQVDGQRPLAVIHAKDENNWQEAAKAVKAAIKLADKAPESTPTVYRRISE", "assay": "In vitro thymidine phosphorylase inhibition (spectrophotometric, absorbance at 290 nm)", "type": "biochemical, human and E. coli", "details": "for IC50: read-out: IC50 value, thymidine phosphorylase inhibitory activity", "protocol": "The desired activity of thymidine phosphorylase under this protocol was carried out with slight modification in the method described by Krenitsky and Bush in 1979[46],[47]. Here, TP activity was determined through spectrophotometrically by absorbance at 290 nm. Although the whole reaction mixture of 200 µL have the limit of 145 µL of potassium phosphate buffer (pH 7.4, 50 mM), 30 µL of enzyme (human and E. coli) by concentration 0.05 and 0.002 U, distinectly, followed by incubation through 5 µL of test materials (0.075, 0.15, 0.3 and 0.5 mM) at 25 °C for 10 min in triplet reader. Subsequently, pre-read at 290 nm was taken to conclude the absorbance of concern substrate particles. The crave substrate “thyimidin” (20 µL, 1.5 mM), was then dissolved in the buffer (potassium phosphate), followed by instant addition to plate with constant read after every 10, 20 and 30 min in micro plate reader (spectra max, molecular devices, CA, USA). All the assay were implemented in triplicate under positive control of 7-Deazxanthine."}
{"compound": "O=C(NN=Cc1ccccc1[N+](=O)[O-])c1ccc(-c2nnc(-c3cc4ccccc4cn3)o2)cc1", "note": "[analogue 1, 4-(5-(isoquinolin-3-yl)-1,3,4-oxadiazol-2-yl)-N’-(2-nitrobenzylidene)benzohydrazide]", "values": [{"measurement": "IC50", "value": "6.3 ± 0.2", "unit": "µM"}]}
{"compound": "O=C(NN=Cc1c2ccccc2cc2ccccc12)c1ccc(-c2nnc(-c3cc4ccccc4cn3)o2)cc1", "note": "[analogue 2, N’-(anthracen-9-ylmethylene)-4-(5-(isoquinolin-3-yl)-1,3,4-oxadiazol-2-yl)benzohydrazide]", "values": [{"measurement": "inhibitory potential compared with the standard 7-Deazaxanthine (in words)", "value": "good inhibitory activity"}, {"measurement": "IC50", "value": "39.4 ± 0.9", "unit": "µM"}]}
{"compound": "O=C(NN=Cc1ccc(Cl)cc1Cl)c1ccc(-c2nnc(-c3cc4ccccc4cn3)o2)cc1", "note": "[analogue 3, N’-(2,4-dichlorobenzylidene)-4-(5-(isoquinolin-3-yl)-1,3,4-oxadiazol-2-yl)benzohydrazide]", "values": [{"measurement": "IC50", "value": "3.3 ± 0.1", "unit": "µM"}]}
{"compound": "O=C(NN=Cc1ccc(COc2ccccc2)cc1)c1ccc(-c2nnc(-c3cc4ccccc4cn3)o2)cc1", "note": "[analogue 4, 4-(5-(isoquinolin-3-yl)-1,3,4-oxadiazol-2-yl)-N’-(4-(phenoxymethyl)benzylidene)benzohydrazide]", "values": [{"measurement": "IC50", "value": "28.3 ± 0.5", "unit": "µM"}]}
{"compound": "CC(=NNC(=O)c1ccc(-c2nnc(-c3cc4ccccc4cn3)o2)cc1)c1ccc([N+](=O)[O-])cc1", "note": "[analogue 5, 4-(5-(isoquinolin-3-yl)-1,3,4-oxadiazol-2-yl)-N’-(1-(4-nitrophenyl)ethylidene)benzohydrazide]", "values": [{"measurement": "IC50", "value": "14.6 ± 0.4", "unit": "µM"}]}
{"compound": "O=C(NN=Cc1ccc(Cl)cc1)c1ccc(-c2nnc(-c3cc4ccccc4cn3)o2)cc1", "note": "[analogue 6, N’-(4-chlorobenzylidene)-4-(5-(isoquinolin-3-yl)-1,3,4-oxadiazol-2-yl)benzohydrazide]", "values": [{"measurement": "IC50", "value": "16.4 ± 0.5", "unit": "µM"}]}
{"compound": "COc1ccc(Br)cc1C=NNC(=O)c1ccc(-c2nnc(-c3cc4ccccc4cn3)o2)cc1", "note": "[analogue 7, N’-(5-bromo-2-methoxybenzylidene)-4-(5-(isoquinolin-3-yl)-1,3,4-oxadiazol-2-yl)benzohydrazide]", "values": [{"measurement": "IC50", "value": "36.7 ± 0.9", "unit": "µM"}]}
{"compound": "CN(C)c1ccc(C=NNC(=O)c2ccc(-c3nnc(-c4cc5ccccc5cn4)o3)cc2)cc1", "note": "[analogue 8, N’-(4-(dimethylamino)benzylidene)-4-(5-(isoquinolin-3-yl)-1,3,4-oxadiazol-2-yl)benzohydrazide]", "values": [{"measurement": "IC50", "value": "18.8 ± 0.5", "unit": "µM"}]}
{"compound": "O=C(NN=Cc1cc(Cl)cc(Cl)c1O)c1ccc(-c2nnc(-c3cc4ccccc4cn3)o2)cc1", "note": "[analogue 9, N’-(3,5-dichloro-2-hydroxybenzylidene)-4-(5-(isoquinolin-3-yl)-1,3,4-oxadiazol-2-yl)benzohydrazide]", "values": [{"measurement": "IC50", "value": "2.4 ± 0.1", "unit": "µM"}]}
{"compound": "Nc1cccc(C=NNC(=O)c2ccc(-c3nnc(-c4cc5ccccc5cn4)o3)cc2)c1", "note": "[analogue 10, N’-(3-aminobenzylidene)-4-(5-(isoquinolin-3-yl)-1,3,4-oxadiazol-2-yl)benzohydrazide]", "values": [{"measurement": "IC50", "value": "1.1 ± 0.1", "unit": "µM"}]}
{"compound": "COc1cc(C=NNC(=O)c2ccc(-c3nnc(-c4cc5ccccc5cn4)o3)cc2)cc(OC)c1O", "note": "[analogue 11, N’-(4-hydroxy-3,5-dimethoxybenzylidene)-4-(5-(isoquinolin-3-yl)-1,3,4-oxadiazol-2-yl)benzohydrazide]", "values": [{"measurement": "IC50", "value": "5.3 ± 0.2", "unit": "µM"}]}
{"compound": "COc1ccc(C=NNC(=O)c2ccc(-c3nnc(-c4cc5ccccc5cn4)o3)cc2)cc1O", "note": "[analogue 12, N’-(3-hydroxy-4-methoxybenzylidene)-4-(5-(isoquinolin-3-yl)-1,3,4-oxadiazol-2-yl)benzohydrazide]", "values": [{"measurement": "IC50", "value": "4.6 ± 0.1", "unit": "µM"}]}
{"compound": "COc1cc(C=NNC(=O)c2ccc(-c3nnc(-c4cc5ccccc5cn4)o3)cc2)ccc1O", "note": "[analogue 13, N’-(4-hydroxy-3-methoxybenzylidene)-4-(5-(isoquinolin-3-yl)-1,3,4-oxadiazol-2-yl)benzohydrazide]", "values": [{"measurement": "IC50", "value": "6 ± 0.2", "unit": "µM"}]}
{"compound": "N#Cc1cccc(C=NNC(=O)c2ccc(-c3nnc(-c4cc5ccccc5cn4)o3)cc2)c1", "note": "[analogue 14, N’-(3-cyanobenzylidene)-4-(5-(isoquinolin-3-yl)-1,3,4-oxadiazol-2-yl)benzohydrazide]", "values": [{"measurement": "IC50", "value": "27.4 ± 0.7", "unit": "µM"}]}
{"compound": "COc1cc(C=NNC(=O)c2ccc(-c3nnc(-c4cc5ccccc5cn4)o3)cc2)cc(OC)c1OC", "note": "[analogue 15, 4-(5-(isoquinolin-3-yl)-1,3,4-oxadiazol-2-yl)-N’-(3,4,5-trimethoxybenzylidene)benzohydrazide]", "values": [{"measurement": "inhibitory potential compared with the standard 7-Deazaxanthine (in words)", "value": "good inhibitory activity"}, {"measurement": "IC50", "value": "47.3 ± 1.2", "unit": "µM"}]}
{"compound": "N#Cc1ccccc1C=NNC(=O)c1ccc(-c2nnc(-c3cc4ccccc4cn3)o2)cc1", "note": "[analogue 16, N’-(2-cyanobenzylidene)-4-(5-(isoquinolin-3-yl)-1,3,4-oxadiazol-2-yl)benzohydrazide]", "values": [{"measurement": "IC50", "value": "18.5 ± 0.5", "unit": "µM"}]}
{"compound": "N#Cc1ccc(C=NNC(=O)c2ccc(-c3nnc(-c4cc5ccccc5cn4)o3)cc2)cc1", "note": "[analogue 17, N’-(4-cyanobenzylidene)-4-(5-(isoquinolin-3-yl)-1,3,4-oxadiazol-2-yl)benzohydrazide]", "values": [{"measurement": "IC50", "value": "22.1 ± 0.5", "unit": "µM"}]}
{"compound": "COc1cccc(C=NNC(=O)c2ccc(-c3nnc(-c4cc5ccccc5cn4)o3)cc2)c1O", "note": "[analogue 18, N’-(2-hydroxy-3-methoxybenzylidene)-4-(5-(isoquinolin-3-yl)-1,3,4-oxadiazol-2-yl)benzohydrazide]", "values": [{"measurement": "IC50", "value": "7.3 ± 0.2", "unit": "µM"}]}
{"compound": "COc1ccc(C=NNC(=O)c2ccc(-c3nnc(-c4cc5ccccc5cn4)o3)cc2)c(OC)c1OC", "note": "[analogue 19, 4-(5-(isoquinolin-3-yl)-1,3,4-oxadiazol-2-yl)-N’-(2,3,4-trimethoxybenzylidene)benzohydrazide]", "values": [{"measurement": "inhibitory potential compared with the standard 7-Deazaxanthine (in words)", "value": "good inhibitory activity"}, {"measurement": "IC50", "value": "54.6 ± 1.5", "unit": "µM"}]}
{"compound": "O=C(NN=Cc1ccc(O)c(O)c1O)c1ccc(-c2nnc(-c3cc4ccccc4cn3)o2)cc1", "note": "[analogue 20, 4-(5-(isoquinolin-3-yl)-1,3,4-oxadiazol-2-yl)-N’-(2,3,4-trihydroxybenzylidene)benzohydrazide]", "values": [{"measurement": "IC50", "value": "1.1 ± 0.05", "unit": "µM"}]}
